According to ChEMBL document CHEMBL4190400, “Identification of Potent Ebola Virus Entry Inhibitors with Suitable Properties for in Vivo Studies” (J Med Chem, 2018):

test system: Ebolavirus; assay: Antiviral activity against VSV pseudotyped Ebolavirus expressing M-GFP infected in African green monkey Vero E6 cells assessed as inhibition of viral infection pre-incubated for 2 hrs before infection and measured after 8 to 12 hrs by fluorescence microscopic method; format: functional, Vero C1008; conditions: Orthoebolavirus, Vero C1008

Question: With `O=C(CC12CC3CC(CC(C3)C1)C2)NCC(=O)N1CCN(Cc2cc(Br)ccc2O)CC1` as the compound, how does the IC50 read?
Answer: 500 nM

Question: Which IC50 does the source give for `Nc1ccc(Br)cc1CN1CCN(C(=O)CNC(=O)CC2CCC(F)(F)CC2)CC1` here?
Answer: 1740 nM

Question: With `CNS(=O)(=O)c1ccc(COc2ccccc2CN2CCN(C(=O)CNC(=O)CC34CC5CC(CC(C5)C3)C4)CC2)cc1` as the compound, how does the IC50 read?
Answer: 300 nM

Question: How did the IC50 turn out when `O=C(CC12CC3CC(CC(O)(C3)C1)C2)NCC(=O)N1CCN(Cc2ccccc2OCc2ccc(Br)cc2)CC1` was run?
Answer: 500 nM

Question: With `COC(=O)c1ccc(Oc2cc(Cl)cc(CN3CCN(C(=O)CNC(=O)CC45CC6CC(CC(C6)C4)C5)CC3)c2)cc1` as the compound, how does the IC50 read?
Answer: 16 nM

Question: `O=C(CC12CC3CC(CC(C3)C1)C2)NCC(=O)N1CCN(Cc2cc(Cl)cc(F)c2F)CC1` was tested. Which IC50 did it give?
Answer: 670 nM

Question: `COC(=O)c1ccc(/C=C/c2ccccc2CN2CCN(C(=O)CNC(=O)CC34CC5CC(CC(C5)C3)C4)CC2)cc1` was tested. Which IC50 did it give?
Answer: 1500 nM

Question: For `O=C(CC12CC3CC(CC(C3)C1)C2)NCC(=O)N1CCN(Cc2cc(Cl)c(F)cc2F)CC1`, which IC50 is on record?
Answer: 370 nM

Question: `COC(=O)c1ccc(COc2ccccc2CN2CCN(C(=O)CNC(=O)CC3CCC(F)(F)CC3)CC2)cc1` was tested. Which IC50 did it give?
Answer: 50 nM

Question: How did the IC50 turn out when `COC(=O)c1ccc(COc2ccccc2CN2CCN(C(=O)CNC(=O)CC3CC(F)(F)C3)CC2)cc1` was run?
Answer: 300 nM

Question: For `O=C(CC1CCC(F)(F)CC1)NCC(=O)N1CCN(Cc2cc(Br)ccc2O)CC1`, which IC50 is on record?
Answer: 790 nM

Question: How did the IC50 turn out when `COC(=O)c1ccc(COc2ccc(Cl)cc2CN2CCN(C(=O)CNC(=O)CC34CC5CC(CC(C5)C3)C4)CC2)cc1` was run?
Answer: 1.1 nM

Question: For `CC1(CC(=O)NCC(=O)N2CCN(Cc3ccccc3OCc3ccc(Br)cc3)CC2)CCCCC1`, which IC50 is on record?
Answer: 520 nM

Question: For `NC(=O)c1ccc(Cl)cc1CN1CCN(C(=O)CNC(=O)CC23CC4CC(CC(C4)C2)C3)CC1`, which IC50 is on record?
Answer: 1900 nM

Question: With `O=C(CC12CC3CC(CC(C3)C1)C2)NCC(=O)N1CCN(Cc2cc(Cl)ccc2C(F)(F)F)CC1` as the compound, how does the IC50 read?
Answer: > 2000 nM

Question: For `NS(=O)(=O)c1ccc(COc2ccccc2CN2CCN(C(=O)CNC(=O)CC34CC5CC(CC(C5)C3)C4)CC2)cc1`, which IC50 is on record?
Answer: 350 nM

Question: `O=C(CC1CCC(F)(F)CC1)NCC(=O)N1CCN(Cc2cc(Cl)ccc2NC(=O)C2CC2)CC1` was tested. Which IC50 did it give?
Answer: 3500 nM

Question: With `O=C(CC12CC3CC(C1)CC(c1ccc(O)c([N+](=O)[O-])c1)(C3)C2)NCC(=O)N1CCN(Cc2ccccc2OCc2ccc(Br)cc2)CC1` as the compound, how does the IC50 read?
Answer: 600 nM

Question: For `COC(=O)c1ccc(COc2ccc(OC)cc2CN2CCN(C(=O)CNC(=O)CC34CC5CC(CC(C5)C3)C4)CC2)cc1`, which IC50 is on record?
Answer: 1400 nM

Question: `Nc1ccc(Cl)cc1CN1CCN(C(=O)CNC(=O)CC23CC4CC(CC(C4)C2)C3)CC1` was tested. Which IC50 did it give?
Answer: 90 nM

Question: With `COC(=O)c1cccc(-c2ccc(Cl)cc2CN2CCN(C(=O)CNC(=O)CC34CC5CC(CC(C5)C3)C4)CC2)c1` as the compound, how does the IC50 read?
Answer: 250 nM

Question: How did the IC50 turn out when `O=C(CC12CC3CC(CC(C3)C1)C2)NCC(=O)N1CCN(Cc2cc(F)c(F)cc2Cl)CC1` was run?
Answer: 1450 nM

Question: Which IC50 does the source give for `COC(=O)c1ccc(COc2ccc(Cl)cc2CN2CCN(C(=O)CNC(=O)CC3CCC(F)(F)CC3)CC2)cc1` here?
Answer: 15 nM

Question: For `O=C(CC12CC3CC(CC(C3)C1)C2)NCC(=O)N1CCN(Cc2cc(Br)ccc2F)CC1`, which IC50 is on record?
Answer: 1200 nM

Question: `COC(=O)c1ccc(COc2ccc(F)cc2CN2CCN(C(=O)CNC(=O)CC3CCC(F)(F)CC3)CC2)cc1` was tested. Which IC50 did it give?
Answer: 18 nM

Question: With `O=C(CC1CCC(F)(F)CC1)NCC(=O)N1CCN(Cc2cc(Cl)cc(F)c2O)CC1` as the compound, how does the IC50 read?
Answer: 2800 nM

Question: `O=C(CC12CC3CC(CC(C3)C1)C2)NCC(=O)N1CCN(Cc2ccccc2OCc2ccc(Br)cc2)CC1` was tested. Which IC50 did it give?
Answer: 220 nM

Question: `O=C(CC12CC3CC(CC(C3)C1)C2)NCC(=O)N1CCN(Cc2cc(Cl)ccc2O)CC1` was tested. Which IC50 did it give?
Answer: 200 nM

Question: How did the IC50 turn out when `O=C(CC1CCC(F)(F)CC1)NCC(=O)N1CCN(Cc2cc(Cl)cc(Cl)c2O)CC1` was run?
Answer: 3600 nM

Question: `NC(=O)c1ccc(COc2ccccc2CN2CCN(C(=O)CNC(=O)CC34CC5CC(CC(C5)C3)C4)CC2)cc1` was tested. Which IC50 did it give?
Answer: 700 nM

Question: For `COC(=O)c1ccc(COc2ccccc2CN2CCN(C(=O)CNC(=O)CC34CC5CC(C3)CC(C(=O)O)(C5)C4)CC2)cc1`, which IC50 is on record?
Answer: > 2000 nM

Question: `O=C(CC12CC3CC(CC(Br)(C3)C1)C2)NCC(=O)N1CCN(Cc2ccccc2OCc2ccc(Br)cc2)CC1` was tested. Which IC50 did it give?
Answer: 600 nM

Question: Which IC50 does the source give for `CN(C)S(=O)(=O)c1ccc(COc2ccccc2CN2CCN(C(=O)CNC(=O)CC34CC5CC(CC(C5)C3)C4)CC2)cc1` here?
Answer: 400 nM

Question: With `CC(=O)Nc1ccc(Cl)cc1CN1CCN(C(=O)CNC(=O)CC23CC4CC(CC(C4)C2)C3)CC1` as the compound, how does the IC50 read?
Answer: 950 nM

Question: How did the IC50 turn out when `N#Cc1ccc(Br)cc1CN1CCN(C(=O)CNC(=O)CC23CC4CC(CC(C4)C2)C3)CC1` was run?
Answer: 310 nM

Question: How did the IC50 turn out when `O=C(CC12CC3CC(CC(C3)C1)C2)NCC(=O)N1CCN(Cc2cc(Cl)ccc2F)CC1` was run?
Answer: 360 nM

Question: With `COC(=O)c1ccc(COc2ccc(Br)cc2CN2CCN(C(=O)CNC(=O)CC34CC5CC(CC(C5)C3)C4)CC2)cc1` as the compound, how does the IC50 read?
Answer: 9 nM

Question: `COC(=O)c1ccc(COc2ccc(C#N)cc2CN2CCN(C(=O)CNC(=O)CC34CC5CC(CC(C5)C3)C4)CC2)cc1` was tested. Which IC50 did it give?
Answer: 50 nM

Question: For `O=C(CC12CC3CC(CC(C3)C1)C2)NCC(=O)N1CCN(Cc2cc(Br)ccc2Cl)CC1`, which IC50 is on record?
Answer: 2200 nM

Question: How did the IC50 turn out when `O=C(CC1CCC(F)(F)CC1)NCC(=O)N1CCN(Cc2cc(Cl)ccc2O)CC1` was run?
Answer: 470 nM

Question: Which IC50 does the source give for `O=C(CC1CCC(F)(F)CC1)NCC(=O)N1CCN(Cc2cc(Cl)ccc2NS(=O)(=O)C2CC2)CC1` here?
Answer: 2200 nM

Question: Which IC50 does the source give for `O=C(CC12CC3CC(C1)CC(c1ccccc1)(C3)C2)NCC(=O)N1CCN(Cc2ccccc2OCc2ccc(Br)cc2)CC1` here?
Answer: 700 nM

Question: `O=C(CC12CC3CC(CC(C3)C1)C2)NCC(=O)N1CCN(Cc2cc(Cl)cc(Cl)c2Cl)CC1` was tested. Which IC50 did it give?
Answer: 430 nM

Question: `COC(=O)c1ccc(CCc2ccccc2CN2CCN(C(=O)CNC(=O)CC34CC5CC(CC(C5)C3)C4)CC2)cc1` was tested. Which IC50 did it give?
Answer: 20 nM

Question: For `O=C(CC12CC3CC(CC(Cl)(C3)C1)C2)NCC(=O)N1CCN(Cc2ccccc2OCc2ccc(Br)cc2)CC1`, which IC50 is on record?
Answer: 500 nM

Question: For `O=C(CC12CC3CC(CC(C3)C1)C2)NCC(=O)N1CCN(Cc2c(F)ccc(Cl)c2F)CC1`, which IC50 is on record?
Answer: 1350 nM

Question: For `COC(=O)c1ccc(COc2ccccc2CN2CCN(C(=O)CNC(=O)CC3(C)CCCCC3)CC2)cc1`, which IC50 is on record?
Answer: 80 nM

Question: With `COC(=O)c1ccc(COc2ccc(F)cc2CN2CCN(C(=O)CNC(=O)CC34CC5CC(CC(C5)C3)C4)CC2)cc1` as the compound, how does the IC50 read?
Answer: 1.4 nM

Question: Which IC50 does the source give for `COC(=O)c1ccc(COc2ccc(C)cc2CN2CCN(C(=O)CNC(=O)CC34CC5CC(CC(C5)C3)C4)CC2)cc1` here?
Answer: 12 nM

Question: How did the IC50 turn out when `COC(=O)c1ccc(COc2ccc(Cl)cc2CN2CCN(C(=O)CNC(=O)C(F)(F)C(F)F)CC2)cc1` was run?
Answer: 160 nM

Question: For `CCC1(CC)CC1C(=O)NCC(=O)N1CCN(Cc2cc(Cl)ccc2N)CC1` (racemic), which IC50 is on record?
Answer: 160 nM

Question: For `O=C(NCC(=O)N1CCN(Cc2cc(Cl)ccc2O)CC1)C1CC12CCC(F)(F)CC2` (racemic), which IC50 is on record?
Answer: 180 nM

Question: `Nc1ccc(Cl)cc1CN1CCN(C(=O)CNC(=O)C2CC23CCC3)CC1` (racemic) was tested. Which IC50 did it give?
Answer: 2500 nM

Question: Which IC50 does the source give for `Nc1ccc(Cl)cc1CN1CCN(C(=O)CNC(=O)C2CC23CCC(F)(F)CC3)CC1` (racemic) here?
Answer: 100 nM

Question: For `Nc1ccc(Cl)cc1CN1CCN(C(=O)CNC(=O)C2CC23CCCC3)CC1` (racemic), which IC50 is on record?
Answer: 240 nM

Question: How did the IC50 turn out when `Nc1ccc(C2CC2)cc1CN1CCN(C(=O)CNC(=O)C2CC23CCC(F)(F)CC3)CC1` (racemic) was run?
Answer: 4200 nM

Question: `Nc1ccc(Cl)cc1C(=O)N1CCN(C(=O)CNC(=O)C2CC23CCC(F)(F)CC3)CC1` (racemic) was tested. Which IC50 did it give?
Answer: > 5000 nM

same assay, conditions: vero c1008

Question: How did the IC50 turn out when `[2H]C([2H])(c1cc(Cl)ccc1N)N1CCN(C(=O)CNC(=O)C2CC23CCC(F)(F)CC3)CC1` (racemic) was run?
Answer: 94 nM

Question: `[2H]C([2H])(c1cc(Cl)ccc1N)N1CCN(C(=O)CNC(=O)C2CC23CCC(F)(F)CC3)CC1` (stereo in doubt; 3-19) was tested. Which IC50 did it give?
Answer: 180 nM
